In brackets after ≈: the same amount, converted by molar mass.
Assays:
Type in all cases: functional
[1] = tested on: Staphylococcus epidermidis; assay: Antimicrobial activity against Staphylococcus epidermidis ATCC 12228 after 18 hrs by broth microdilution test; details: ATCC 12228, 18 h
Staphylococcus aureus = assay: Antimicrobial activity against Staphylococcus aureus ATCC 25923 after 18 hrs by broth microdilution test; details: ATCC 25923, 18 h
Candida albicans = assay: Antimicrobial activity against Candida albicans ATCC 1600 after 48 hrs by broth microdilution test; details: ATCC 1600, 48 h

MIC [1] [µM] | MIC (Staphylococcus aureus) [µM] | MIC (Candida albicans) [µM] | SMILES
> 130 | > 130 | > 130 | COc1cc([C@@H]2c3cc(OC)c(O)c(OC)c3C=C(C)[C@H]2C)cc(OC)c1O (relative stereo) [SACIDUMLIGNAN B]
23 (≈ 6.13 µg/mL) | 47 (≈ 12.5 µg/mL) |  | C=CCc1ccc(O)c(-c2cc(CC=C)ccc2O)c1 [MAGNOLOL]
 |  | 14 (≈ 6.05 µg/mL) | COC(=O)C1=CC[C@@]23CC[C@@H]([C@@](C)(/C=C/C=C(\C)C(=O)O)OC2=O)[C@@]3(OC(C)=O)CC1 [PSEUDOLARIC ACID B]
65 (≈ 25 µg/mL) | 130 (≈ 50 µg/mL) | > 130 | COc1cc(-c2c(C)c(C)cc3c(OC)c(O)c(OC)cc23)cc(OC)c1O [SACIDUMLIGNAN A]
